# Experimental data from patent US20240009269A1 (priority 2020, published 2024).
# No end group written: not given here.
# What was measured:
# [1] = system: mouse brain (blood-brain barrier); conditions: mouse, in vivo
# Text: Briefly, male C57BL/6J mice (n=43, 6-8 weeks old, 20-25 g, Jackson Laboratory) were anesthetized with 2% isoflurane. The common carotid artery (CCA) bifurcation was exposed and the occipital artery branching off from the external carotid artery (ECA) was coagulated. The ECA and the pterygopalatine artery (PPA) were temporarily ligated with 4-0 silk sutures. A temporary ligature using a 4-0 suture was placed on the carotid bifurcation and the proximal CCA was permanently ligated. A microcatheter (PE-8-100, SAI Infusion Technologies) was flushed with 2% heparin (1,000 U mL^−1, heparin sodium, Upjohn), inserted into the CCA via a small arteriotomy, and advanced into the internal carotid artery (ICA).
# For each animal, 150 μL of solution was infused at a rate of 150 μL minute^−1. […] The brains were harvested immediately after Evans Blue injection, sectioned in brain slicer matrix (Zivic Instruments) to produce 1 mm slabs.
# Animal anesthesia was maintained at 1.5-2% during the MRI scan. Mice were placed on a water-heated animal bed equipped with temperature and respiratory control. Respiration was monitored and maintained at 30-60 minutes^−1. All MRI experiments were performed on a Bruker 11.7T MRI scanner. Baseline T2 (TR/TE=2,500/30 ms), susceptibility-weighted imaging (SWI) (TR/TE=378/8 ms), T1 (TR/TE 350/6.7 ms)-weighted, dynamic gradient echo echo-planar imaging (GE-EPI, TR/TE 1250/9.7 ms, field of view (FOV)=14×14 mm, matrix=128×128, acquisition time=60 s and 24 repetitions) and dynamic T1 imaging (TR/TE 2000/3. 5ms, field of view=14×14 mm, acquisition time=8 seconds and 20 repetitions) images of the brain were acquired. The microcatheter was connected to a syringe mounted on an MRI compatible programmable syringe pump (PHD 2000, Harvard Apparatus Inc.). Gadolinium (Gd; Prohance) dissolved in saline at 1:50 was infused intra-arterially at the rate of 150 μL minute^−1 under dynamic GE-EPI MRI for visualization of perfusion territory. […] To quantify BBB status, T1 intensities in cortex, hippocampus and thalamus/hypothalamus were compared between ipsilateral and contralateral hemispheres. T1 hyperintensity was corrected for possible asymmetry using pre-contrast T1 images and normalized as the ratio of ipsilateral to contralateral intensity. Additionally, the area of BBBO (mm^2) was calculated by conversion of T1 images to binary using the Auto Threshold function (plugin v1.17; Maximum Entropy method) [Kapur, J. N., P. K. Sahoo, and A. K. C. Wong, Computer Vision, Graphics, and Image Processing, 1985, 29(3): p. 273-285] in ImageJ. T2-weighted and SWI images were acquired at the same timepoints for detection of brain damage and microhemorrhage. Subsequently, animals were sacrificed for further histological assessment.
# To determine the area and region of perfusion territory, we first calculated the contrast enhancement maps at the time where contrast enhancement was at its maximum. As Gd causes negative contrast under T2 imaging, we calculated the contrast enhancement as (SIpre-SIpost)/SIpre, where SI is the signal intensity of an MR image. Histogram was plotted for all pixels in the brain region in a contrast enhancement map and further fitted into two Gaussian distributions, assuming there were two dominant populations for non-contrast enhanced and contrast-enhanced pixels, respectively. The cutoff value to separate the two populations was then determined. The fraction of contrast enhanced areas was calculated by the ratio of the number of pixels, whose values are larger than the cutoff value, to the total number of pixels in the brain. A similar method was used to determine the BBBO territory.
# [2] = cited from earlier work
# blood-brain barrier = conditions: cited from earlier work
# [3] = system: tissue-engineered dhBMECs microvessels; test: BBB opening in tissue-engineered BBB microvessels (500 kDa dextran leakage); type: cell-based, human
# Description: Three-dimensional blood-brain barrier microvessels were fabricated as previously reported (FIGS. 10A and 10B) [Linville, R. M., et al., Biomaterials, 2019. 190-191: p. 24-37] 150 μm diameter and 1 cm long channels were patterned in 7 mg mL^−1 type I collagen (Corning) using nitinol wire (Malin Co.) housed within polydimethylsiloxane (PDMS; Dow Corning). Channels were cross-linked by incubation in 20 mM genipin (Wako Biosciences) for 2 hours to increase cell adhesion. 2dhBMECs were suspended in BBB induction medium at a concentration of 5×10^6 cells mL^−1 and seeded into channels. Microvessels were perfused using BBB induction medium for 24 hours and then switched to BBB maintenance medium. During cell seeding and the first day of perfusion, 10 μM ROCK inhibitor Y27632 (ATCC) was supplemented to increase adhesion. An average shear stress of ˜2 dyn cm^−2 was maintained with a reservoir height difference (Δh) of 3 cm, corresponding to a volumetric flow rate of ˜250 μL h^−1 (FIG. 11D). This shear stress was estimated from the Poiseuille equation: τ=μQ)/2πd3 where μ is the media dynamic viscosity, Q is the volumetric flow rate, and d is the microvessel diameter.
# Live-cell imaging was conducted to study dynamic changes in in vitro BBB permeability and microvessel structure. Microvessels were imaged using a 10×objective equipped on an inverted microscope (Nikon Eclipse TiE) maintained at 37° C. and 5% CO2 (FIG. S2C). Epifluorescence illumination was provided by an X-Cite 120LEDBoost (Excelitas Technologies). Phase contrast and fluorescence images were acquired every two minutes with the focal plane set to the microvessel midplane. The entire image collected consists of ten adjacent imaging frames. […] A dextran solute panel comprised of 200 μM Cascade Blue-conjugated 3 kDa dextran (Cat. No. D7132. Thermo Fisher Scientific), 16 μM Alexa Fluor647-conjugated 10 kDa dextran (Cat. No. D22914, Thermo Fisher Scientific), and 1.2 μM fluorescein-conjugated 500 kDa dextran (Cat. No. D7136, Thermo Fisher Scientific) was prepared in BBB maintenance medium. Fluorophores were independently excited and the respective emissions were collected using: Nikon UV-2E/C for 3 kDa dextran (50 ms exposure), Chroma 41008 for 10 kDa dextran (20 ms exposure), and Nikon B-2E/C for 500 kDa dextran (50 ms exposure).
# Image processing was performed using ImageJ (NIH) to quantify BBB opening (FIGS. 11A-11D). First, images were cropped to a standard size of 6 mm×0.6 mm. To determine the spatial heterogeneity of BBB permeability, microvessels were sectioned into 10 regions of interest (ROIs), each a 0.6 mm×0.6 mm square (FIG. 11A). For each ROI, the integrated pixel density was plotted over time (FIG. 11A). The permeability (cm s^−1) was calculated using P=(r/2)(1/ΔI)(dI/dt), where r is the vessel radius, ΔI is the increase in fluorescence intensity upon perfusion of the fluorophore, and (dI/dt) is the rate of increase in fluorescence intensity as solute exits into the gel. […] To visually display permeability dynamics, heatmaps were generated from 90 instantaneous permeability values across the 10 ROIs (x-axis) and nine 10-minute periods (y-axis). […] 28(1): p. 41-51 in ImageJ (FIG. 11B). Under baseline conditions, thresholding results in the lumen designated as white (1) and extracellular matrix (ECM) as black (0). […] From binarized images, individual focal leaks were manually counted over time. Leaks emerging from the sides of the image frame were not counted. To quantify the duration of a BBB opening effect, we identified the time at which the last focal leak appeared and termed the focal leak reversibility time constant (τfocal leaks).
# [4] = 25, 50, and 100 μM·minute doses
compound,measurement,setting,value
OC[C@@H](O)[C@@H](O)[C@H](O)[C@H](O)CO [mannitol],extent of BBBO compared with 3 μM·minute melittin,[1],similar
same,solubility limit,[2],around 1.4 M
same,concentration above which BBBO is induced,blood-brain barrier,> 1.1 M
GIGAVLKVLTTGLPALISWIKRKRQQ-NH2 [melittin-CONH2],slope of focal leak reversibility versus dose,[3]; compared across four variants,highest slope
"RVGALKQTAIPVKSLIWGRQLIGLKT-NH2 [Mel-Scramble, reference compound]",BBBO,[3]; [4],did not induce BBBO
same,change in the permeability of 500 kDa dextran following perfusion,[3]; [4],no change
same,focal leaks during or 24 hours after perfusion,[3]; [4],no focal leaks were observed
